In article PMC9312238, “Novel Organoselenium Redox Modulators with Potential Anticancer, Antimicrobial, and Antioxidant Activities” (Antioxidants, 2022):
Like-named read-outs stand apart in the source and are kept apart here.

Columns and labels:
Staphylococcus aureus = test: Agar diffusion assay, S. aureus; type: cell-based; design: S. aureus A% (activity index): concentration or dose not given beside the values; conditions: for zone of inhibition at 20 µM: Staphylococcus aureus, read-out: S. aureus IZD (mm); for S. aureus A% (activity index): zone of test compound / zone of standard (ampicillin) x 100
Protocol: (§1) The antimicrobial activities of the OSe compounds were evaluated against C. albicans yeast, as well as E. coli and S. bacteria, employing the agar well diffusion assay. Furthermore, the MICs (in µM) were determined by the microdilution method according to the reported protocol. More details are in the Supporting Information.
(§2) Compounds were evaluated for their antimicrobial activity against the Gram-negative bacteria Escherichia coli (E. coli) and the Gram-positive bacteria Staphylococcus aureus (S. aureus), as well as the Candida albicans (C. albicans) fungal strain, using the agar diffusion assay. Ampicillin and clotrimazole were used as standards. Indeed, the antimicrobial properties of the OSe compounds were also obtained from the activity index percentage (A%) according to Equation (2). (2) A%=Zone of inhibition by test compound diametre/Zone of inhibition by standard diametre×100 . […]
(§3) 1.1.1. The antimicrobial activity
The antimicrobial activities of the OSe compounds were evaluated against C. albicans yeast as well as E. coli gram-negative and S. aureus gram-positive bacteria employing the agar well diffusion assay. Briefly, a concentration of 1 mM was prepared for each compound by dissolving in DMSO. Paper discs of standard size […] were steri-lized in an autoclave and soaked in 20 µL of the test compounds, and placed in the Petri dishes, which in turn contain a nutrient media (agar 20 g, peptone 5 g, and beef extract 3 g) seeded with the dedicated strain. Incubation lasted for 24 h at 36
(§4) Furthermore, the MICs (in µM) were determined by the microdilution method according to the reported protocol. […]
(§5) Inhibition%= (Ablank-Asample)/(Ablank)*100. (1)

Escherichia coli = test: Agar diffusion assay, E. coli; type: cell-based; design: E. coli A% (activity index): concentration or dose not given beside the values; conditions: for zone of inhibition at 20 µM: Escherichia coli, read-out: E. coli IZD (mm); for E. coli A% (activity index): zone of test compound / zone of standard (ampicillin) x 100
MCF-7 cells = test: cells; type: cell-based, human; conditions: for IC50: Homo sapiens; for MCF7 TI (IC50 WI-38 / IC50 MCF-7): therapeutic index, ratio of WI-38 IC50 to MCF-7 IC50
Protocol: (§6) Cells were obtained from the ATCC Company (VACSERA), Cairo, Egypt. MTT assay were performed according to the literature method. More details are in the Supporting Information.
(§7) Recently, OSe compounds gained much attention as possible drug candidates due to their various pharmacological properties. […] Therefore, the anticancer attributes of the newly prepared OSe compounds were estimated using the MTT assay against MCF-7 and HepG2 and compared with their respective cytotoxicity in WI-38 primary cells. The anthracycline drug doxorubicin was used as the standard. […] Moreover, the therapeutic index (TI) was also calculated (according to Equation (1)), which is considered a measure of the selectivity and safety of the synthesized compounds. (1) TI=IC50 for the normal WI38 cells/IC50 for the cancer cells […]
(§8) 1.1. The biological assays
(§9) 1.1.1. The anticancer activity
(§10) The breast adenocarcinoma (MCF-7), Hepatocellular carcinoma (HEPG-2), and nor-mal fibroblast (WI-38) cells were obtained from ATCC via Holding company for biological products and vaccines (VACSERA), Cairo, Egypt.
(§11) DMSO, and fetal bovine serum was obtained from Sigma Aldrich. Dulbecco’s modified Eagle’s medium was used as the culture medium for the cells, and the cytotoxicity was evaluated using the reported MTT assay. Doxorubicin was used as the positive reference, and the IC50 values were obtained from the corresponding dose-response curve.
(§12) This colorimetric assay is based on converting the yellow tetrazolium bromide (MTT) to a purple formazan derivative by mitochondrial succinate dehydrogenase in viable cells. […]
(§13) added were 100 units/ml penicillin and 100µg/ml streptomycin at 37 C in a 5% Co2 incu-bator. The cell lines were seeded in a 96-well plate at a density of 1.0x10^4 cells/well. at 37 C for 48 h under 5% Co2. After incubation, the cells were treated with different concentra-tions of compounds and incubated for 24 h. After 24 h of drug treatment, 20 µl of MTT solution at 5mg/ml was added and incubated for 4 h. Finally, dimethyl sulfoxide (DMSO) in the volume of 100 µl is added to each well to dissolve the purple formazan formed. The colorimetric assay is measured and recorded at an absorbance of 570 nm using a plate […]
(§14) The percentage of the relative cell viability was calculated as (A570 of treated samples/A570 of the untreated sample) X 100. […]

WI-38 cells = test: cells; type: cell-based, human; conditions: Homo sapiens
Protocol: as §6, §7, §8, §9, §10, §11, §12, §13, §14

HepG2 cells = test: cells; type: cell-based, human; conditions: for IC50: Homo sapiens; for HepG2 TI (IC50 WI-38 / IC50 HepG2): therapeutic index, ratio of WI-38 IC50 to HepG2 IC50
Protocol: as §6
Recently, OSe compounds gained much attention as possible drug candidates due to their various pharmacological properties. Our group has reported several OSe candidates with potential anticancer, antimicrobial, and antioxidant activities. Therefore, the anticancer attributes of the newly prepared OSe compounds were estimated using the MTT assay against MCF-7 and HepG2 and compared with their respective cytotoxicity in WI-38 primary cells. The anthracycline drug doxorubicin was used as the standard. The minimal inhibition concentration required to kill 50% of the cells (IC50) was calculated from dose-response curves presented in Table 1. Moreover, the therapeutic index (TI) was also calculated (according to Equation (1)), which is considered a measure of the selectivity and safety of the synthesized compounds. (1) TI=IC50 for the normal WI38 cells/IC50 for the cancer cells […]
as §8, §9
The breast adenocarcinoma (MCF-7), Hepatocellular carcinoma (HEPG-2), and nor-mal fibroblast (WI-38) cells were obtained from ATCC via Holding company for biological products and vaccines (VACSERA), Cairo, Egypt. The reagents RPMI-1640 medium, MTT, DMSO, and fetal bovine serum was obtained from Sigma Aldrich. Dulbecco’s modified Eagle’s medium was used as the culture medium for the cells, and the cytotoxicity was evaluated using the reported MTT assay. Doxorubicin was used as the positive reference, and the IC50 values were obtained from the corresponding dose-response curve.
This colorimetric assay is based on converting the yellow tetrazolium bromide (MTT) to a purple formazan derivative by mitochondrial succinate dehydrogenase in viable cells.
Cell lines were cultured in RPMI-1640 medium with 10% fetal bovine serum. Antibiotics added were 100 units/ml penicillin and 100µg/ml streptomycin at 37 C in a 5% Co2 incu-bator. The cell lines were seeded in a 96-well plate at a density of 1.0x10^4 cells/well. at 37 C for 48 h under 5% Co2. After incubation, the cells were treated with different concentra-tions of compounds and incubated for 24 h. After 24 h of drug treatment, 20 µl of MTT solution at 5mg/ml was added and incubated for 4 h. Finally, dimethyl sulfoxide (DMSO) in the volume of 100 µl is added to each well to dissolve the purple formazan formed. The colorimetric assay is measured and recorded at an absorbance of 570 nm using a plate reader (EXL 800, USA). The percentage of the relative cell viability was calculated as (A570 of treated samples/A570 of the untreated sample) X 100. […]
as §5

Candida albicans = test: microbe, parasite or virus in culture; type: cell-based; conditions: for zone of inhibition at 20 µM: Candida albicans, inhibition zone diameter, six-mm disks soaked with 20 μM of compound, read-out: C. albicans IZD (mm); for C. albicans A% (activity index): zone of test compound / zone of standard (clotrimazole) x 100
Protocol: as §1, §2, §3
The antimicrobial activities of the OSe compounds were evaluated against C. albicans yeast as well as E. coli gram-negative and S. aureus gram-positive bacteria employing the agar well diffusion assay. […]
compound by dissolving in DMSO. […]
Petri dishes, which in turn contain a nutrient media (agar 20 g, peptone 5 g, and beef extract 3 g) seeded with the dedicated strain. Incubation lasted for 24 h at 36
as §4, §5

[1] = inhibition zone diameter, six-mm disks soaked with 20 μM of compound
[2] = MCF7, MTT, 24 h incubation, MCF-7 cells, read-out: MCF7 IC50
[3] = MTT, 24 h incubation, normal WI-38 cells, read-out: WI38 IC50
[4] = MTT, 24 h incubation, HepG2 cells, read-out: HepG2 IC50

SMILES | melting point | zone of inhibition at 20 µM (Staphylococcus aureus; [1]) | S. aureus A% (activity index) (Staphylococcus aureus) | zone of inhibition at 20 µM (Escherichia coli; [1]) | E. coli A% (activity index) (Escherichia coli) | IC50 (MCF-7 cells; MCF7, 24 h, read-out: MCF7 IC50 (µM)) | IC50 (WI-38 cells; WI-38, 24 h, read-out: WI38 IC50 (µM)) | zone of inhibition at 20 µM (Staphylococcus aureus) | IC50 (HepG2 cells; HepG2, 24 h, read-out: HepG2 IC50 (µM)) | zone of inhibition at 20 µM (Escherichia coli) | IC50 (MCF-7 cells; [2]) | IC50 (WI-38 cells; [3]) | IC50 (HepG2 cells; [4]) | MCF7 TI (IC50 WI-38 / IC50 MCF-7) (MCF-7 cells) | zone of inhibition at 20 µM (Candida albicans) | C. albicans A% (activity index) (Candida albicans) | HepG2 TI (IC50 WI-38 / IC50 HepG2) (HepG2 cells)
O=C(C[Se]c1ccc(N=Cc2ccccc2O)cc1)Nc1ccccc1 | 150.3 °C | – | – | – | – | – | – | – | – | – | – | – | – | – | – | – | –
CC1(C)S[C@@H]2[C@H](NC(=O)[C@H](N)c3ccccc3)C(=O)N2[C@H]1C(=O)O [Ampicillin, ampicillin, reference compound] | – | 21 mm | 100% | 23 mm | 100% | – | – | – | – | – | – | – | – | – | – | – | –
N#CC(C#N)=NNc1ccc([Se]CC(=O)Nc2ccccc2)cc1 [Compound 7] | 177 to 179 °C | – | 29% | – | 13% | > 100 µM | > 100 µM | 6 mm | > 100 µM | 3 mm | – | – | – | – | – | – | –
CC1=NN(c2ccccc2)C(=O)C1=NNc1ccc([Se]CC(=O)Nc2ccccc2)cc1 [Compound 8, 2-((4-(2-(3-methyl-5-oxo-1-phenyl-1H-pyrazol-4(5H)-ylidene)hydrazinyl)phenyl)selanyl)-N-phenylacetamide] | 197 to 199 °C | 4 mm | 19% | – | – | – | – | – | – | – | > 100 µM | > 100 µM | > 100 µM | – | – | – | –
O=C(O)C=CC(=O)Nc1ccc([Se]CC(=O)Nc2ccccc2)cc1 [Compound 10, 4-oxo-4-((4-((2-oxo-2-(phenylamino)ethyl)selanyl)phenyl)amino)but-2-enoic acid] | – | 11 mm | 52% | 9 mm | 39% | – | – | – | – | – | 34.8 ± 2.5 µM | 46 ± 2.9 µM | > 100 µM | 1.3 | 8 mm | 33% | –
O=C(C[Se]c1ccc(N2C(=O)c3ccccc3C2=O)cc1)Nc1ccccc1 [Compound 12, 2-((4-(1,3-dioxoisoindolin-2-yl)phenyl)selanyl)-N-phenylacetamide] | 261 to 262 °C | 8 mm | 38% | 6 mm | 26% | – | – | – | – | – | > 100 µM | > 100 µM | > 100 µM | – | 7 mm | 29% | –
O=C(C[Se]c1ccc(N2C(=O)C=CC2=O)cc1)Nc1ccccc1 [Compound 13, 2-((4-(2,5-dioxo-2,5-dihydro-1H-pyrrol-1-yl)phenyl)selanyl)-N-phenylacetamide] | 169 to 170 °C | 6 mm | 29% | 5 mm | 22% | – | – | – | – | – | > 100 µM | > 100 µM | > 100 µM | – | – | – | –
O=CNc1ccc([Se]CC(=O)Nc2ccccc2)cc1 [Compound 17, 2-((4-formamidophenyl)selanyl)-N-phenylacetamide] | 143 to 144 °C | – | – | – | – | – | – | – | – | – | > 100 µM | > 100 µM | > 100 µM | – | – | – | –
CC(=O)Nc1ccc([Se]CC(=O)Nc2ccccc2)cc1 [Compound 18, 2-((4-acetamidophenyl)selanyl)-N-phenylacetamide] | 161 to 162 °C | 8 mm | – | 6 mm | 26% | – | – | – | – | – | 43.5 ± 2.6 µM | 85.1 ± 4.7 µM | 47.6 ± 2.8 µM | 2 | 11 mm | 46% | 1.8
O=C(CCl)Nc1ccc([Se]CC(=O)Nc2ccccc2)cc1 [Compound 19] | 184.8 °C | – | – | – | – | – | – | – | – | – | > 100 µM | > 100 µM | > 100 µM | – | – | – | –
CN(C)C=Nc1ccc([Se]CC(=O)Nc2ccccc2)cc1 [Compound 20, 2-((4-(((dimethylamino)methylene)amino)phenyl)selanyl)-N-phenylacetamide] | 118 to 120 °C | 9 mm | 43% | 8 mm | 35% | – | – | – | – | – | 36.8 ± 2.4 µM | > 100 µM | 40.3 ± 2.5 µM | 2.7 | 11 mm | 46% | 2.5
COc1cccc2c1C(=O)c1c(O)c3c(c(O)c1C2=O)C[C@@](O)(C(=O)CO)C[C@@H]3O[C@H]1C[C@H](N)[C@H](O)[C@H](C)O1 [Doxorubicin, doxorubicin, reference compound] | – | – | – | – | – | – | – | – | – | – | – | – | 4.5 ± 0.2 µM | 1.6 | – | – | 1.5
